Source: patent publication US12263177B2, “Biologically active ganoderma lucidum compounds and synthesis of anticancer derivatives; ergosterol peroxide probes for cellular localization” (priority 2019, dated 2025)
Where two headings read alike, the source gives them in different places.

Experiments:
SUM-149 cells [1] = assay: Cell cycle assay; type: cell-based, human; details: EP 20 μM, 48 h
Method: SUM-149 cells were treated for 48 h with EP, then collected and washed in 1×PBS. The cells (5×10^5) were fixed and permeabilized in 70% ethanol at −20° C. until further analysis. To measure the DNA content, the cells were washed and resuspended in 150 μL of PBS buffer then incubated in 100 μL of 100 μg/mL RNase A (MilliporeSigma, Burlington, MA) for 15 min at RT, then 250 μL of 50 μg/mL Propidium Iodide (MilliporeSigma) was added. Samples were incubated at RT for 10 min and analyzed on a BD FACS Canto II flow cytometer (BD Biosciences, San José, Calif.). Data were analyzed by using FlowJo software (V10, FlowJo LLC, Ashland, OR).

MDA-MB-231 = assay: Cytotoxicity of EP probes via CTG assay; type: cell-based, human; details: Homo sapiens, MDA-MB-231, 72 hr, read-out: MDA-MB231 EC50
Method: (§3) Both normal cell lines HMEC and BJ cells were also evaluated to determine therapeutic index.
(§4) The concentrations used were experimentally determined to ensure logarithmic growth during the duration of the experiment and prevent adverse effects on cell growth by DMSO exposure. The plates were incubated at 37° C. in 5% CO2 for 24 h before treatment. Stock solutions of test compounds (10 mM in DMSO) in nine 3-fold serial dilutions were dispensed via pintool (Biomek). The final concentration of DMSO was 0.3% (v/v) in each well. The plates were incubated for 72 h at 37° C. in 5% CO2 and then quenched with CellTiter-Glo® reagent (50 μL/well in 96-well plate, 30 μL/well in 384-well plate) at RT. The positive controls included staurosporine (10 μM), gambogic acid (10 μM), and a toxic quinoline generated in-house. Plates were then incubated at RT for 20 min and centrifuged at 1000 rpm for 1 min. The cytotoxicity assay was performed by using the CellTiterGlo Luminescent Cell Viability Assay kit (G7570, Promega, Madison, WI) according to the manufacturer's instructions. Luminescence was recorded in an Envision plate reader (Perkin Elmer).
(§5) For the CTG assay, 3 or 4 replicate assays were conducted for each experimental condition, and a minimum of 3 independent experiments were conducted for cellular assays. The mean luminescence of each experimental treatment group was normalized as a percentage of the mean intensity of untreated controls. EC50 values (μM) were calculated by Pipeline Pilot Software (Accelrys, Enterprise Platform, CA, USA). EC50 values (μM) from the viability assay were calculated from dose response curve-fitting via non-linear regression by using GraphPad Prism (Version 7.0 San Diego, CA).

T47D = assay: Cytotoxicity of EP probes via CTG assay; type: cell-based; details: Homo sapiens, T47D, 72 hr
Method: as §3, §4, §5

MDA-MB-231 TNBC cells = assay: Cell viability assay (CellTiter-Glo or PI staining); type: cell-based; details: Homo sapiens, MDA-MB-231, read-out: EC50, MDA-MB-231 cell viability; FIG. 4E
Method: (§6) Different concentrations of GLE-extracted bioactive chemical components were tested for 72-h treatment periods.
Either 1×10^3-4.8×10^3 or 4×10^2-1.2×10^3 cells were seeded to each well of 96- or 384-well white polystyrene flat-bottomed plates (3610 or 8804BC, Corning) in 100 μL or 30 μL media per well, respectively. The concentrations used were experimentally determined to ensure logarithmic growth during the duration of the experiment and prevent adverse effects on cell growth by DMSO exposure. The plates were incubated at 37° C. in 5% CO2 for 24 h before treatment. Stock solutions of test compounds (10 mM in DMSO) in nine 3-fold serial dilutions were dispensed via pintool (Biomek). The final concentration of DMSO was 0.3% (v/v) in each well. […] Luminescence was recorded in an Envision plate reader (Perkin Elmer).
as §5

[2] = system: MDA-MB-231 breast cancer cells; assay: De novo in-cell protein synthesis (click assay); type: cell-based, human; details: 2 h treatment; EP 20 μM
Method: First, 2.5×10^4 cells/well were seeded in 8-well μ-slides (Ibidi®, #80826) and incubated at 37° C. for 12 h. The cells were treated with vehicle, compounds Ganoderic acid A or EP, or cycloheximide (positive control) for 2 h to determine protein synthesis as nascent proteins generated using Biovision's EZClick™ Global Protein Synthesis Assay Kit, (#K715-100, Milpitas, CA). The assay includes a robust chemical method based on an alkyne containing o-propargyl-puromycin (OP-puro) probe, which stops translation by forming covalent conjugates with nascent polypeptide chains. Truncated polypeptides are rapidly turned over by the proteasome and can be detected based on the subsequent click reaction with a fluorescent azide. The reaction was conducted according to the manufacturer's protocol. Cells were imaged at 20× with a Nikon C2 scanning confocal microscope, and the whole image montage was quantified by using Gen5 Software and Lionheart™ FX Automated Microscope (BioTek, Winooski, VT).

SUM-149 cells [3] = assay: Invasion assay (Transwell, Matrigel); type: cell-based, human; details: 72 h
Method: Previously, the anti-migratory activities of whole mushroom GLE in SUM-149 cells was reported. To investigate EP's effects on cell migration, Boyden chamber assays; while to investigate invasion, Transwell chambers were used. […] Furthermore, an additional decrease (43%) was seen when cells were treated with a non-lethal dose of 15 μM of EP (P<0.01) (FIG. 8B).
Cell migration and invasion were measured by using Corning® FluoroBlok™ Cell Culture Inserts and performing BD BioCoat Matrigel invasion assays (BD Biosciences, San José, Calif.) as described in [12, 14].

[4] = system: additional cancer cellular models; assay: Cell viability assay, additional cancer models; type: cell-based
Source text: Therefore, EP exerts selective effects on cancer cell viability, similar to the effects obtained with whole mushroom extract (GLE), indicating an ample therapeutic window for this compound.

MDA-MB-231 cells [5] = assay: Reactive oxygen species (ROS) measurement, CellROX; type: cell-based, human; details: EP 20 μM, vs vehicle
SUM-149 cells [6] = assay: Annexin V apoptosis detection; type: cell-based, human; details: 20 μM, 48 h
Method: (§1) Cells commonly fail to bypass the G1 phase of the cycle due to mutations or DNA damage, which can result in apoptosis. […] In addition, caspase 3/7 activity assays were performed as an alternate method of apoptosis detection.
SUM-149 cells (5×10^5) were seeded and treated either with vehicle (0.1% DMSO) or with 20 μM of EP or with puromycin (200 ng/mL) as positive control for 48 h. After treatment floating cells were collected, and all cells were harvested and counted. Treated cells were analyzed for cell death by using the FITC Annexin-V/7AAD Apoptosis detection kit (product #640922, Biolegend, San Diego, CA) according to the manufacturer's instructions. Briefly, cells were resuspended in Annexin Binding Buffer, stained with Annexin V-FITC and/or 7-AAD, and incubated for 30 min at 4° C. Data were acquired on a BD FACS Canto II cytometer (BD Biosciences, San José, Calif.) and analyzed by using FlowJo software (V10, FlowJo LLC, Ashland, OR).

Solubility observations = type: physicochemical
Method: One of the liabilities with EP is sharing its core with cholesterol, an amphipathic molecule with part-water soluble, part-water insoluble character. Thus, while able to readily cross the cell membrane, the ability to deliver the pure compound faces challenges. EP's solubility properties are poor in DMSO or water unless warmed up to 30° C. However, in this report, EP's derivative, EP sulfonamide, was soluble at 10 mM in DMSO. Thus, the generation of a selective anti-cancer compound with greater potency than EP, and ample therapeutic window when compared to BJ normal cells, was accomplished.

SUM-149 cells [7] = assay: Cell viability assay (CellTiter-Glo or PI staining); type: cell-based, human; details: for EC50: Homo sapiens, read-out: EC50, SUM-149 cell viability
Method: as §6
Either 1×10^3-4.8×10^3 or 4×10^2-1.2×10^3 cells were seeded to each well of 96- or 384-well white polystyrene flat-bottomed plates (3610 or 8804BC, Corning) in 100 μL or 30 μL media per well, respectively. The concentrations used were experimentally determined to ensure logarithmic growth during the duration of the experiment and prevent adverse effects on cell growth by DMSO exposure. The plates were incubated at 37° C. in 5% CO2 for 24 h before treatment. Stock solutions of test compounds (10 mM in DMSO) in nine 3-fold serial dilutions were dispensed via pintool (Biomek). The final concentration of DMSO was 0.3% (v/v) in each well. The plates were incubated for 72 h at 37° C. in 5% CO2 and then quenched with CellTiter-Glo® reagent (50 μL/well in 96-well plate, 30 μL/well in 384-well plate) at RT. The positive controls included staurosporine (10 μM), gambogic acid (10 μM), and a toxic quinoline generated in-house. Plates were then incubated at RT for 20 min and centrifuged at 1000 rpm for 1 min. The cytotoxicity assay was performed by using the CellTiterGlo Luminescent Cell Viability Assay kit (G7570, Promega, Madison, WI) according to the manufacturer's instructions. Luminescence was recorded in an Envision plate reader (Perkin Elmer).
as §5

SUM-149 cells [8] = assay: ApoTox-Glo Triplex assay (caspase 3/7); type: cell-based, human; details: SUM-149, 24 h
Method: as §1
(§2) Cells (9.5×10^4/well in 75 μL of fresh medium) were dispensed in 96-well black flat bottom (8807BC, Corning) plates. The cells were incubated for 12 h at 37° C. and then treated with compounds (25 μL) for 24 h. DMSO was used as a negative control, and staurosporine was used as the positive control. The experiment was stopped by adding the Viability/Cytotoxicity Reagent and briefly mixed by orbital shaking (300-500 rpm for ˜30 sec). Plates were incubated for 30 min at 37° C., and fluorescence was measured in an Envision plate reader at the following two wavelength sets: 400Ex/505Em (Viability) 485Ex/520Em (Cytotoxicity). Then, the Caspase-Glo® 3/7 Reagent was added; plates were mixed briefly by orbital shaking (300-500 rpm for ˜30 sec), followed by an additional 30 min incubation at RT. Then luminescence, which correlates with caspase 3/7 activation, was recorded with a plate reader to determine apoptosis induction.

MDA-MB-231 cells [9] = assay: ApoTox-Glo Triplex assay (caspase 3/7); type: cell-based, human; details: MDA-MB-231, 24 h
Method: as §1, §2

[10] = type: physicochemical; details: 168 hr at RT

CC(C)[C@@H](C)/C=C/[C@@H](C)[C@H]1CC[C@@H]2[C@]1(C)CC[C@H]1[C@]23C=C[C@]2(C[C@@H](O)CC[C@]12C)OO3 [EP, ergosterol peroxide]
increase in percentage of cells in G1 phase (SUM-149 cells [1]): ~20%
reduction of the percentage of cells in G2/M (SUM-149 cells [1]): 10%
EC50 (MDA-MB-231): 18 µM
EC50 (T47D): 19 µM
EC50 (MDA-MB-231 TNBC cells): 19 µM
de novo protein synthesis inhibition [2]: do not inhibit de novo protein synthesis
invading cells (SUM-149 cells [3]; 10 μM): significant reduction
decrease in invasion (SUM-149 cells [3]; 15 μM): 43%
EC50 [4]: 7 to 22 µM
ROS formation, fold (MDA-MB-231 cells [5]): 2 fold
decrease of live cells (Annexin−, 7AAD−) (SUM-149 cells [6]): ~15%
percentage of cells in early apoptosis (Annexin+, 7AAD−) (SUM-149 cells [6]): significantly increased
solubility properties (in words) (Solubility observations): poor
concentration at which SUM-149 cell viability is significantly reduced (SUM-149 cells [7]; 72 h): 8 µM
EC50 (SUM-149 cells [7]; SUM149, 24 h): 34 µM
EC50 (SUM-149 cells [7]; SUM149, 72 h): 20 µM
caspase 3/7 activity (SUM-149 cells [8]): increase caspase 3/7 activity
caspase 3/7 activity (MDA-MB-231 cells [9]): increase caspase 3/7 activity
precipitation on standing [10]: precipitation
